The results in this text go back to ChEMBL document CHEMBL1201862, “PubChem BioAssay data set” (2004).

The structures appear in SMILES notation.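 Protocol summary: plate cells (96-well), add compound at 5 concentrations, incubate 48 h, interpolate endpoints linearly. At the GI50, growth is halved.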 Calls of active or inactive are those of the source. Rule as the data show it: active = GI50 up to about 1.1 µM and inactive = higher.

What all share (experiment): growth of human tumour cells (NCI), 48 h
In assay [1] the test system is 786-0.
Assay [2] has as its system A549.
The subject of assay [3] is ACHN.
Assay [4] relates to CAKI-1.
The subject of assay [5] is DU-145.
For assay [6], the system named is EKVX.
For assay [7], the system named is HCT-116.
The test system of assay [8] is Hs-578T.
Assay [9] deals with M14.
Assay [10] has as its system NCI-H522.
Assay [11] deals with NCI/ADR-RES.
In assay [12] the test system is OVCAR-3.
The test system of assay [13] is PC-3.
Assay [14] deals with SK-MEL-2.
Assay [15] concerns T47D.
In assay [16] the test system is TK-10.
The test system of assay [17] is U-251.
Assay [18] relates to UACC-62.
Assay [19] has as its system UO-31.
Assay [20] has as its system HCC 2998.

`O=c1oc2ncccc2n1Cc1ccc([N+](=O)[O-])cc1`: the GI50 in assay [1], in assay [2], in assay [3], in assay [4], in assay [5] and in assay [6] was > 100 µM (inactive) each time. In addition, the GI50 is 68.2 µM (inactive) in assay [7]; > 100 µM (inactive) in assay [8]; > 100 µM (inactive) in assay [9]; > 100 µM (inactive) in [10]; > 100 µM (inactive) in [11]; > 100 µM (inactive) in [12]. Further, the GI50 in assay [13], in [14], in assay [15], in [16], in assay [17] and in assay [18] was > 100 µM (inactive) each time. Also, the GI50 in assay [19] is 26.5 µM (inactive).

In the case of `C=CCCCC1(C)CCCCNC1=O` (stereo not given), the GI50 in assay [1], in assay [2], in assay [3], in assay [4], in assay [5] and in [6] was > 10 µM (inactive) in each case. Besides, the GI50 in assay [20], in assay [7], in [8], in assay [9], in [11] and in [12] was > 10 µM (inactive) in each case. Besides, the GI50 in assay [13], in assay [14], in assay [15], in assay [16], in [17] and in assay [18] was > 10 µM (inactive) each time. Further, the GI50 in [19] was > 10 µM (inactive).

For `CN(C)CCNC(=O)c1cccc2c(NC(CCCNC(=N)N)C(=O)O)c3ccccc3nc12` (stereo not given), the GI50 was 7.52 µM (inactive) in assay [1]; 4.8 µM (inactive) in [2]; 2.79 µM (inactive) in assay [3]; 17 µM (inactive) in assay [5]; 3.48 µM (inactive) in [6]; 3.93 µM (inactive) in assay [7]. Moreover, the GI50 in assay [8] was 11.4 µM (inactive); in assay [9] it was 14 µM (inactive); in assay [10], 3.75 µM (inactive); in assay [11], 3.75 µM (inactive); in assay [12] it was 18.1 µM (inactive); in assay [13], 9.1 µM (inactive). Moreover, the GI50 is 13.8 µM (inactive) in assay [14]; 21.1 µM (inactive) in [16]; 14.3 µM (inactive) in [17]; 15.8 µM (inactive) in assay [18]; 2.82 µM (inactive) in assay [19].

For `COc1cccc([C@@H]2C/C(=N\NC(=O)C(=O)N[C@@H](C)c3ccccc3)c3cc4c(cc3N2)OCO4)c1`, the GI50 in assay [1] is 82 µM (inactive); in assay [2], 43.9 µM (inactive); in assay [3], > 100 µM (inactive); in assay [4], 48.1 µM (inactive); in assay [5], > 100 µM (inactive); in [6], 65.9 µM (inactive). Moreover, the GI50 in assay [20] was 50.9 µM (inactive); in assay [7], 22.4 µM (inactive); in assay [8] it was 19.7 µM (inactive); in [9], 34.1 µM (inactive); in [11], 13.9 µM (inactive); in assay [12], 30.1 µM (inactive). The GI50 was 98.6 µM (inactive) in assay [13]; 85.9 µM (inactive) in assay [14]; > 100 µM (inactive) in assay [15]; > 100 µM (inactive) in assay [16]; > 100 µM (inactive) in assay [17]; 17.1 µM (inactive) in assay [18]. For the same compound, the GI50 in assay [19] was > 100 µM (inactive).

Consider `O=C1CC(c2ccc(Cl)cc2)C2(C(=O)NC(=S)NC2=O)C(c2ccc(Cl)cc2)C1` (stereo not given), for which the GI50 was 36.5 µM (inactive) in [1]; 26.9 µM (inactive) in assay [2]; 36.2 µM (inactive) in assay [3]; 25.1 µM (inactive) in assay [4]; 37.2 µM (inactive) in [5]; 29 µM (inactive) in [6]. Also, the GI50 in assay [20] was 25.8 µM (inactive); in assay [7], 18.7 µM (inactive); in assay [8], 30 µM (inactive); in assay [9], 22.2 µM (inactive); in assay [11], 20.8 µM (inactive); in assay [12] it was 17.4 µM (inactive). For the same compound, the GI50 was 20.1 µM (inactive) in assay [13]; 17.3 µM (inactive) in [14]; 23.7 µM (inactive) in assay [15]; 41.1 µM (inactive) in [16]; 29.2 µM (inactive) in assay [17]; 16.1 µM (inactive) in assay [18]. The GI50 in [19] is 23.9 µM (inactive).

Take `CC(=O)c1cc(C)n2c1CS[C@@H]2c1ccccc1`: the GI50 in assay [1] was 19.7 µM (inactive); in assay [2], 53 µM (inactive); in assay [3] it was 68.2 µM (inactive); in [4], 70.5 µM (inactive); in [5], 29.1 µM (inactive); in assay [6], 34.9 µM (inactive). Besides, the GI50 in assay [7] was 30.8 µM (inactive); in [8] it was > 100 µM (inactive); in assay [9] it was > 100 µM (inactive); in assay [10] it was 30.2 µM (inactive); in assay [11] it was 50.1 µM (inactive); in assay [12] it was 39.6 µM (inactive). For the same compound, the GI50 in assay [13] is 33.3 µM (inactive); in [14], 98.9 µM (inactive); in [15], 35.6 µM (inactive); in assay [16] it was 91 µM (inactive); in [17], 28.4 µM (inactive); in [19], 64.3 µM (inactive).

For `Clc1ccccc1/C=C\C1(c2ccccc2)OCCO1`, the GI50 is 16.5 µM (inactive) in assay [1]; > 100 µM (inactive) in assay [2]; 17.3 µM (inactive) in assay [3]; 17.3 µM (inactive) in assay [4]; 16.7 µM (inactive) in [5]; 19.1 µM (inactive) in [6]. The GI50 is 17.5 µM (inactive) in [20]; 12.3 µM (inactive) in [7]; 13.8 µM (inactive) in assay [8]; > 100 µM (inactive) in assay [9]; 13.4 µM (inactive) in assay [10]; 16.4 µM (inactive) in assay [11]. In addition, the GI50 in assay [12] was 17.7 µM (inactive); in assay [15], 26.9 µM (inactive); in [16] it was 22.2 µM (inactive); in [17] it was 12.2 µM (inactive); in assay [18] it was 15.7 µM (inactive); in [19], > 100 µM (inactive).

In the case of `CCn1c(-c2ccc(/N=N/Nc3ccc(-c4n[nH]c(=S)n4CC)cc3)cc2)n[nH]c1=S`, the GI50 was 4.24 µM (inactive) in assay [1]; 3.56 µM (inactive) in assay [2]; 2.36 µM (inactive) in [3]; 2.7 µM (inactive) in assay [4]; 2.87 µM (inactive) in assay [5]; 2.41 µM (inactive) in assay [6]. In addition, the GI50 was 3.55 µM (inactive) in [7]; 3.15 µM (inactive) in assay [8]; 2.65 µM (inactive) in assay [9]; 1.67 µM (inactive) in [10]; 28.8 µM (inactive) in [11]; 2.26 µM (inactive) in assay [12]. Besides, the GI50 in assay [13] is 2.75 µM (inactive); in [14], 1.68 µM (inactive); in assay [15], 0.861 µM (active); in [16], 4.92 µM (inactive); in assay [17] it was 2.57 µM (inactive); in assay [19], 2.33 µM (inactive).

Regarding `CCSC12OC3(CCCCCN3C1=O)C1C(=O)N(c3ccccc3)C(=O)C12` (stereo not given), the GI50 in [1], in [2], in assay [3], in [4], in [5] and in assay [6] was > 100 µM (inactive) throughout. Further, the GI50 in assay [7], in assay [8], in [9], in assay [10], in assay [11] and in assay [12] was > 100 µM (inactive) throughout. Further, the GI50 in assay [13], in assay [14], in assay [15], in assay [16], in [17] and in assay [18] was > 100 µM (inactive) in each case. Further, the GI50 in assay [19] was > 100 µM (inactive).

On to `COc1ccc(/C=N/CCC/N=C/c2ccc(OC)cc2O)c(O)c1`, for which the GI50 is 76.6 µM (inactive) in [1]; > 100 µM (inactive) in [2]; 48.6 µM (inactive) in assay [3]; 37.8 µM (inactive) in assay [5]; 29.3 µM (inactive) in assay [6]; 71.9 µM (inactive) in assay [7]. For the same compound, the GI50 was 22 µM (inactive) in assay [8]; 75.3 µM (inactive) in assay [9]; > 100 µM (inactive) in assay [10]; 16 µM (inactive) in [12]; 42 µM (inactive) in [13]; 34.8 µM (inactive) in assay [14]. Further, the GI50 in assay [16] was > 100 µM (inactive); in [17], 40.6 µM (inactive); in assay [18] it was 27 µM (inactive); in assay [19], 46 µM (inactive).

On to `COC([C@@H](OC(=O)c1ccccc1)[C@H](OC(=O)c1ccccc1)C(O)COC(=O)c1ccccc1)n1cc(C)c(=O)[nH]c1=O` (stereo not given in full), for which the GI50 in assay [1] is 26.2 µM (inactive); in assay [2] it was 16.4 µM (inactive); in assay [3], 31.6 µM (inactive); in assay [5], 44.5 µM (inactive); in [6], 26.1 µM (inactive); in assay [7], 23.6 µM (inactive). Besides, the GI50 was 28.4 µM (inactive) in assay [8]; 22.8 µM (inactive) in [9]; 20.4 µM (inactive) in assay [10]; 28.6 µM (inactive) in assay [11]; 20.3 µM (inactive) in [12]; 4.83 µM (inactive) in assay [13]. Moreover, the GI50 is 25.7 µM (inactive) in assay [14]; 11.6 µM (inactive) in assay [15]; 33.8 µM (inactive) in [16]; 14.5 µM (inactive) in [17]; 17.3 µM (inactive) in assay [18]; 25.5 µM (inactive) in assay [19].
